Data published in patent publication US20200015498A1, “ANIMAL FEED WITH BETA ADRENERGIC AGONIST AND ISOQUINOLINE ALKALOID” (priority 2017, published 2020).

What was measured:
Type in all cases: in vivo
pigs [1] = assay: Fourth experiment: 1500 pigs in four groups fed AFC1-AFC4, distribution in meat quality classes
Method: (§1) In most countries of the world, the quality of the carcass (without innards and blood) is determined as of muscle area, fat mm at back, total analysis of fat content etc. for determining the price of the carcass per kg warm or cold carcass weight (depending on country). For this purpose, the animals are scanned in the slaughtering line by means of sensors or image-giving techniques, and the proportion of muscles and the thickness of the backbone are measured and converted into an equation which then calculates the proportion of lean meat in the entire carcass. In the EU, the carcasses can be assigned to different meat quality groups according to the following classification scheme: • S=Highest quality=>60.85% lean-meat • E=Premium Quality=58.75% lean-meat • U=High Quality=>55.9% lean-meat • R=Medium Quality=>53.9% lean-meat • O=Low Quality=>51.1% lean-meat • P=very low Quality=<51.1% lean-meat
As a rule, during the last 4-week before slaughter day when beta adrenergic agonists are typically administered, an animal feed is administered which not only has a higher protein content but also a higher proportion of muscle-binding amino acids (e.g., lysine). For example, a manufacturer of a beta adrenergic agonist prescribes that the content of the limiting amino acid lysine and threonine in the feed must be about 30% higher than under “standard” conditions when the beta adrenergic agonist is administered. It is, however, known that only 30% of the amino acids added to the feed are resorbed and metabolized, the rest being lost.
The test was performed with 1500 pigs divided into four groups 1-4, each group comprising 375 pigs. The pigs were held in 100 units of 15 animals per unit. Different groups of pigs were fed with feeds of different compositions. The following table illustrates meat quality indicators.
(§2) The following animal feed compositions were administered: • AFC1: Corn, maize, soybean meal, vitamine, enzyme and mineral mixture comprising: 17% protein 0.8% lysine • AFC2: Corn, maize, Corn, maize, soybean meal, vitamine, enzyme and mineral mixture comprising: 17% protein, 0.8% lysine and 1 mg isoquinoline alkaloid/kg feed (mainly sanguinarine) • AFC3: Corn, maize, soybean meal, vitamine, enzyme and mineral mixture comprising: 19% protein, 1% lysine and a beta adrenergic agonist (ractopamin as “Paylean®” in recommended dosage (®=reg. trademark of Eli Lilly and Co.) • AFC4: Corn, maize, soybean meal, vitamine, enzyme and mineral mixture comprising: 17% protein, 0.9% lysine, 1 mg isoquinoline alkaloid (mainly sanguinarine)/kg feed and a beta adrenergic agonist (ractopamin as “Paylean®” Paylean in recommended dosage)

pigs [2] = assay: Sixth experiment: test four repeated with 1310 pigs of a further animal farm
Method: as §1, §2
(§3) Test four was repeated with 1310 pigs of a further animal farm divided into four groups 1-4, each group comprising 330 pigs. The pigs were held in 11 units of 30 animals. Different groups of pigs were fed with feeds of different compositions as described for the fourth experiment. The following table illustrates meat quality indicators.

pigs [3] = assay: Second experiment: 4 groups of 50 pigs fed different food and additive combinations for 4 weeks until slaughter day
Source text: In the second experimental test, 4 groups of 50 pigs were fed with different food and additive combinations for 4 weeks until slaughter day as presented in the table below. The Isoquinoline alkaloids in the feed of groups 2 and 3 mainly consisted of sanguinarine.

pigs [4] = assay: Fifth experiment: test four repeated with 1700 pigs of a different farm
Method: as §1, §2
as §3, with “1700” for “1310”, “different” for “further animal”, “425” for “330”, “in” for “in 11”, “25” for “30”

pigs [5] = assay: Third experiment: meat quality classes of 120 pigs per group fed for the last four weeks until slaughter day
Method: The following table illustrates meat quality indicators obtained for 120 pigs fed for the last four weeks until slaughter day added with a beta adrenergic agonist at recommended dosages of 7.5 mg/kg feed and having a protein enriched feed formulation comparing to 120 other pigs fed during the same time period with the same feed which in addition the beta adrenergic agonist is also added with isoquinoline alkaloids like sanguinarin.
as §1

[6] = class O >51.1% lean-meat, feeds AFC2, AFC3, AFC4, control 4
[7] = class P <51.1% lean-meat, feeds AFC2, AFC3, AFC4, control 0
[8] = class E >58.75 % lean-meat, 120 pigs per group
[9] = class O >51.10 % lean-meat, 120 pigs per group
[10] = class P <51.10 % lean-meat, 120 pigs per group
[11] = class R >53.90 % lean-meat, 120 pigs per group
[12] = class U >55.90 % lean-meat, 120 pigs per group

For CC(CCc1ccc(O)cc1)NCC(O)c1ccc(O)cc1 (stereo not drawn) [ractopamine], the “Distribution of slaughtered pigs in meat quality class E” value (“Distribution … in meat quality class E” for short) (pigs [1]; class E >58.75% lean-meat, feeds AFC2, AFC3, AFC4, control 35) was 39%, the “Distribution of slaughtered pigs in meat quality class O” value (shortened to “Distribution … in meat quality class O”) (pigs [1]; [6]) was 1% and the “Distribution of slaughtered pigs in meat quality class P” value (“Distribution … in meat quality class P” below) (pigs [1]; class P <51.1% lean-meat, feeds AFC2, AFC3, AFC4, control 1) was 0%. The “Distribution of slaughtered pigs in meat quality class R” value (from here on “Distribution … in meat quality class R”) (pigs [1]; class R >53.9% lean-meat, feeds AFC2, AFC3, AFC4, control 10) was 2%, the “Distribution of slaughtered pigs in meat quality class S” value (shortened to “Distribution … in meat quality class S”) (pigs [1]; class S >60.85% lean-meat, Group 2 feed AFC2, Group 3 AFC3, Group 4 AFC4, 375 pigs per group, control 35) was 38% and the “Distribution of slaughtered pigs in meat quality class U” value (“Distribution … in meat quality class U” below) (pigs [1]; class U >55.9% lean-meat, feeds AFC2, AFC3, AFC4, control 15) was 20%. The “% of all pigs distributed in classes S and E” value (pigs [1]; fourth experiment, control 70%) was 77%, the “Distribution … in meat quality class E” value (pigs [2]; class E >58.75% lean-meat, feeds AFC2, AFC3, AFC4, control 33) was 38% and the “Distribution … in meat quality class O” value (pigs [2]; [6]) was 1%. The “Distribution … in meat quality class P” value (pigs [2]; [7]) was 0%, the “Distribution … in meat quality class R” value (pigs [2]; class R >53.9% lean-meat, feeds AFC2, AFC3, AFC4, control 11) was 3% and the “Distribution … in meat quality class S” value (pigs [2]; class S >60.85% lean-meat, Group 2 feed AFC2, Group 3 AFC3, Group 4 AFC4, 330 pigs per group, control 30) was 40%. For the same compound, the “Distribution … in meat quality class U” value (pigs [2]; class U >55.9% lean-meat, feeds AFC2, AFC3, AFC4, control 22) was 18%, the “% of all pigs (carcasses classified as S and E quality)” value (pigs [2]; sixth experiment, control 63%) was 78% and the Feed conversion ratio (pigs [3]; 4 weeks until slaughter, isoquinoline alkaloids 1 mg/kg feed and/or ractopamin 7.5 mg/kg feed, control 2.78) was 2.62. For the same compound, the Daily weight gain (pigs [3]; 4 weeks until slaughter, isoquinoline alkaloids 1 mg/kg feed and/or ractopamin 7.5 mg/kg feed, control 753) was 852 g, the “live mass at slaughter day” value (pigs [3]; after 4 weeks, isoquinoline alkaloids 1 mg/kg feed and/or ractopamin 7.5 mg/kg feed, soybean 15% (group 2), 17% (group 3), 20% (group 4), control 118) was 125.5 kg and the Fraction lean meat (pigs [3]; at slaughter, isoquinoline alkaloids 1 mg/kg feed and/or ractopamin 7.5 mg/kg feed, control 54.95) was 58.5%. The “performance (daily weight gain, feed utilization, lean meat content) compared with the control group, in words” value (pigs [3]; second experiment, groups 2-4 versus group 1) was “significantly improves performance and increases the lean meat content and the feed utilization”, the “Distribution … in meat quality class E” value (pigs [4]; class E >58.75% lean-meat, feeds AFC2, AFC3, AFC4, control 30) was 35% and the “Distribution … in meat quality class O” value (pigs [4]; [6]) was 2%. For the same compound, the “Distribution … in meat quality class P” value (pigs [4]; [7]) was 0%, the “Distribution … in meat quality class R” value (pigs [4]; class R >53.9% lean-meat, feeds AFC2, AFC3, AFC4, control 15) was 8% and the “Distribution … in meat quality class S” value (pigs [4]; class S >60.85% lean-meat, Group 2 feed AFC2, Group 3 AFC3, Group 4 AFC4, 425 pigs per group, control 26) was 40%. For the same compound, the “Distribution … in meat quality class U” value (pigs [4]; class U >55.9% lean-meat, feeds AFC2, AFC3, AFC4, control 25) was 15%, the “% of all pigs (carcasses classified as S and E quality)” value (pigs [4]; fifth experiment, control 56%) was 75% and the “% of all pigs in meat quality class E” value (pigs [5]; [8]) was 41%. The “Number of pigs in meat quality class E” value (pigs [5]; [8]) was 49, the “% of all pigs in meat quality class O” value (pigs [5]; [9]) was 1% and the “Number of pigs in meat quality class O” value (pigs [5]; [9]) was 1. The “% of all pigs in meat quality class P” value (pigs [5]; [10]) was 0%, the “Number of pigs in meat quality class P” value (pigs [5]; [10]) was 0 and the “% of all pigs in meat quality class R” value (pigs [5]; [11]) was 6%. The “Number of pigs in meat quality class R” value (pigs [5]; [11]) was 7, the “% of all pigs in meat quality class S” value (pigs [5]; class S >60.85 % lean-meat, 120 pigs per group) was 33% and the “Number of pigs in meat quality class S” value (pigs [5]; class S >60.85 % lean-meat, 120 pigs per group, ractopamin 7.5 mg/kg feed, protein enriched feed) was 40. For the same compound, the “% of all pigs in meat quality class U” value (pigs [5]; [12]) was 19%, the “Number of pigs in meat quality class U” value (pigs [5]; [12]) was 23 and the “numbers of S and E carcass classes as highest value carcasses” value (pigs [5]; third experiment, sum of classes S and E) was 74%.
